# Test results: US20260001914A1, “MACROCYCLIC PEPTIDES TARGETING KRAS” (Merck Sharp & Dohme LLC, priority 2022, published 2026)
# *1 amine or outer side, *2 acyl side, *3 side chain or, on linkers, in order; H or OH if unused. Where a SMILES comes first, the peptide text is derived from it. Bridges are numbered along the chain shown (N, C = ends). [ ]: non-standard residue; d: D form. The star is where a group is joined. cBu(1-CO,cis-3-CH2NH) = O=C([C@H]1C[C@@H](CN[*:1])C1)[*:2]; NMeNva(5-imidazol-1-yl) = CN[C@@H](CCCn1ccnc1)C(=O)O; Phe(4-guanidino) = N=C(N)Nc1ccc(C[C@H](N)C(=O)O)cc1; X44 = C[C@@H](c1ccccc1)[C@@H](C(=O)[*:2])N(C)[*:1]; X22 = CNC(=N)N(C)CCC[C@@H](C(=O)[*:2])N(C)[*:1]; Ala(pyrimidin-5-yl) = N[C@@H](Cc1cncnc1)C(=O)O; X6 = O=C([C@H](Cc1cnn(C2COC2)c1)N[*:1])[*:2]; NMePhe(3-Me) = CN[C@@H](Cc1cccc(C)c1)C(=O)O; X14 = O=C([C@H](Cc1c(F)cncc1F)N[*:1])[*:2]; X37 = O=C([C@H](Cc1cnc(F)cc1F)N[*:1])[*:2]; Ethyl(2-pyrrolidin-1-yl) = C1CCN(CC*)C1; X11 = CC(C)(F)CC[C@H](N[*:1])C(=O)[*:2]; X13 = O=C([C@H](Cc1ccncc1F)N[*:1])[*:2]; Nle(5,5-F2) = CC(F)(F)CC[C@H](N)C(=O)O; X35 = CN([C@@H](CCCF)C(=O)[*:2])[*:1]; Ala(cPent) = N[C@@H](CC1CCCC1)C(=O)O; Phe(2-F) = N[C@@H](Cc1ccccc1F)C(=O)O; Abu(4,4-F2) = N[C@@H](CC(F)F)C(=O)O; NMe3Pal = CN[C@@H](Cc1cccnc1)C(=O)O; X1 = O=C(C12CC(CN[*:1])(C1)C2)[*:2]; X17 = O=C([C@H](CCCCF)N[*:1])[*:2]; Ala(cPr) = N[C@@H](CC1CC1)C(=O)O; NMeF = CN[C@@H](Cc1ccccc1)C(=O)O; PhLac = O=C(O)[C@@H](O)Cc1ccccc1; X4 = O=C([C@H](CCCF)N[*:1])[*:2]; 3Pal = N[C@@H](Cc1cccnc1)C(=O)O; Ahp(2) = CCCCC[C@H](N)C(=O)O; Cba = N[C@@H](CC1CCC1)C(=O)O; hLeu = CC(C)CC[C@H](N)C(=O)O; αMeC = C[C@](N)(CS)C(=O)O; NMeA = CN[C@@H](C)C(=O)O; Nle = CCCC[C@H](N)C(=O)O; Pyrrolidide = C1CCN(*)C1
# Molecular target: phosphorylation levels of ERK1/2 in AsPC-1 (homozygous KRAS-G12D) cells (Homo sapiens, UniProt P01116, G12D)
# Assay: Cellular phospho-ERK assay in AsPC-1 cells (Alpha Screen), assay medium without fetal bovine serum;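 further: signal taken as phospho-ERK over total ERK per well, both detected in one multiplex bead assay, EC50 from four-parameter logistic fit of dose-response curves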
# Type: cell-based
# Conditions: phospho-ERK AlphaScreen, 18 h
# Sequence of phosphorylation levels of ERK1/2 in AsPC-1 (homozygous KRAS-G12D) cells (P01116 1-186 G12D): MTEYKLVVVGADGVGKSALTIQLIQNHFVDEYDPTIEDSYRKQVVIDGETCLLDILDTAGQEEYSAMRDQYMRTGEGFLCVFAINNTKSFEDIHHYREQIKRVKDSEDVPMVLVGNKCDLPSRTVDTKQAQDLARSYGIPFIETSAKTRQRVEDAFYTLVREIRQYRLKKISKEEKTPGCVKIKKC
row,SMILES,EC50 [µM]
1,"CCCC[C@@H]1NC(=O)[C@H](Cc2cccnc2)NC(=O)[C@H](CCCF)N(C)C(=O)[C@H](Cc2ccccc2)OC(=O)C23CC(CNC(=O)[C@H](Cc4cccnc4)N(C)C(=O)[C@H](CCCC)NC(=O)[C@H](Cc4ccccc4F)NC1=O)(C2)C3 [compound 239, cyclo(FLac-NMeNvaF-3Pal-Nle-Phe2F-Nle-NMe3Pal-amBCP)] (cyclo([3Pal][Nle][Phe(2-F)][Nle][NMe3Pal][X1][PhLac][X35]))",20.7
2,"CC(C)CC[C@@H]1NC(=O)[C@H](Cc2ccccc2F)NC(=O)[C@H](CC2CC2)NC(=O)[C@H](Cc2cnn(C3COC3)c2)NC(=O)[C@H](C)N(C)C(=O)[C@H](Cc2ccccc2)OC(=O)C23CC(CNC(=O)[C@H](Cc4cccnc4)N(C)C1=O)(C2)C3 [compound 301, cyclo(FLac-NMeA-AlaPyz1Ox-cPrA-Phe2F-hL-NMe3Pal-amBCP)] (cyclo([Ala(cPr)][Phe(2-F)][hLeu][NMe3Pal][X1][PhLac][NMeA][X6]))",39.5
3,"CC(C)CC[C@@H]1NC(=O)[C@H](Cc2cnc(F)cc2F)NC(=O)[C@H](CC2CC2)NC(=O)[C@H](Cc2cncnc2)NC(=O)[C@H](C)N(C)C(=O)[C@H](Cc2ccccc2)OC(=O)C23CC(CNC(=O)[C@H](Cc4ccccc4)N(C)C1=O)(C2)C3 [compound 294, cyclo(FLac-NMeA-PyrimAla-cPrA-3Pal46F2-hL-NMeF-amBCP)] (cyclo([Ala(cPr)][X37][hLeu][NMeF][X1][PhLac][NMeA][Ala(pyrimidin-5-yl)]))",4.66
4,"CCCCC[C@@H]1NC(=O)[C@H](Cc2ccc(OC)cc2)NC(=O)[C@H](CC2CCCC2)NC(=O)[C@H](Cc2ccc(NC(=N)N)cc2)NC(=O)[C@H](CCCNC(=N)N)NC(=O)[C@H](Cc2ccccc2)NC(=O)CSC[C@@](C)(C(N)=O)NC(=O)[C@H](Cc2ccccc2)N(C)C1=O [compound 366, cyclo(F-R-Phe4Gn-cPeA-TyrOMe-Ahp-NMeF-aMeCl-ClAc)] ({CH2CO}-FR[Phe(4-guanidino)][Ala(cPent)]Y(Me)[Ahp(2)][NMeF][αMeC]-NH2; thioether N-8)",12.2
5,"CCCC[C@@H]1NC(=O)[C@H](Cc2cncnc2)NC(=O)[C@H](C)N(C)C(=O)[C@H](Cc2ccccc2)OC(=O)C23CC(CNC(=O)[C@H](Cc4ccccc4)N(C)C(=O)[C@H](CCCCF)NC(=O)[C@H](Cc4ccccc4F)NC1=O)(C2)C3 [compound 131, cyclo(FLac-NMeA-PyrimAla-Nle-Phe2F-NleF-NMeF-amBCP)] (cyclo([NMeA][Ala(pyrimidin-5-yl)][Nle][Phe(2-F)][X17][NMeF][X1][PhLac]))",2.33
6,"C[C@H]1C(=O)N[C@@H](Cc2cncnc2)C(=O)N[C@@H](CCCCF)C(=O)N[C@@H](Cc2ccccc2F)C(=O)N[C@@H](CCCCF)C(=O)N(C)[C@@H](Cc2ccccc2)C(=O)NCC23CC(C2)(C3)C(=O)O[C@@H](Cc2ccccc2)C(=O)N1C [compound 128, cyclo(FLac-NMeA-PyrimAla-NleF-Phe2F-NleF-NMeF-amBCP)] (cyclo([NMeA][Ala(pyrimidin-5-yl)][X17][Phe(2-F)][X17][NMeF][X1][PhLac]))",3.72
7,"C[C@@H](c1ccccc1)[C@H]1C(=O)NCC23CC(C2)(C3)C(=O)O[C@@H](Cc2ccccc2)C(=O)N(C)[C@@H](C)C(=O)N[C@@H](Cc2cncnc2)C(=O)N[C@@H](CC2CC2)C(=O)N[C@@H](Cc2ccccc2F)C(=O)N[C@@H](CCC(C)(C)F)C(=O)N1C [compound 340, cyclo(FLac-NMeA-PyrimAla-cPrA-Phe2F-hL3F-NMeSbMeF-amBCP)] (cyclo([Ala(cPr)][Phe(2-F)][X11][X44][X1][PhLac][NMeA][Ala(pyrimidin-5-yl)]))",4.25
8,"CCCC[C@@H]1NC(=O)[C@H](Cc2cccnc2)NC(=O)[C@H](CCCn2ccnc2)N(C)C(=O)[C@H](Cc2ccccc2)OC(=O)C23CC(CNC(=O)[C@H](Cc4ccccc4)N(C)C(=O)[C@H](CCCC)NC(=O)[C@H](Cc4ccccc4F)NC1=O)(C2)C3 [compound 233, cyclo(FLac-NMeNvalmid-3Pal-Nle-Phe2F-Nle-NMeF-amBCP)] (cyclo([3Pal][Nle][Phe(2-F)][Nle][NMeF][X1][PhLac][NMeNva(5-imidazol-1-yl)]))",5.16
9,"CCCC[C@@H]1NC(=O)[C@H](Cc2ccc(O)cc2)NC(=O)[C@H](CC2CCCCC2)NC(=O)[C@H](CCCCN)NC(=O)[C@H](CCCNC(=N)N)NC(=O)[C@H](Cc2cccc3ccccc23)NC(=O)CSC[C@H](C(N)=O)NC(=O)[C@H](Cc2ccccc2)N(C)C1=O [compound 139, cyclo(INal-R-K-Cha-Y-Nle-NMeF-dCl-ClAc)]",> 50.8
10,"CCCC[C@@H]1NC(=O)[C@H](Cc2ccc(NC(=N)N)cc2)NC(=O)[C@H](CCCN(C)C(=N)NC)N(C)C(=O)[C@H](Cc2ccccc2)NC(=O)[C@H]2C[C@@H](CNC(=O)[C@H](Cc3ccccc3)N(C)C(=O)[C@H](CCCC)NC(=O)[C@H](Cc3ccc(OC)cc3)NC1=O)C2 [compound 384, cyclo(F-NMeArg1MeMe-Phe4Gn-Nle-TyrOMe-Nle-NMeF-c3amCblc)] (cyclo(F[X22][Phe(4-guanidino)][Nle]Y(Me)[Nle][NMeF][cBu(1-CO,cis-3-CH2NH)]))",> 50.8
11,"C[C@H]1C(=O)N[C@@H](Cc2cncnc2)C(=O)N[C@@H](CC2CC2)C(=O)N[C@@H](Cc2ccccc2F)C(=O)N[C@@H](CC(F)F)C(=O)N(C)[C@@H](Cc2ccccc2)C(=O)NCC23CC(C2)(C3)C(=O)O[C@@H](Cc2ccccc2)C(=O)N1C [compound 271, cyclo(FLac-NMeA-PyrimAla-cPrA-Phe2F-AbuF2-NMeF-amBCP)] (cyclo([Ala(cPr)][Phe(2-F)][Abu(4,4-F2)][NMeF][X1][PhLac][NMeA][Ala(pyrimidin-5-yl)]))",36.6
12,"Cc1cccc(C[C@H]2C(=O)NCC34CC(C3)(C4)C(=O)O[C@@H](Cc3ccccc3)C(=O)N(C)[C@@H](C)C(=O)N[C@@H](Cc3cncnc3)C(=O)N[C@@H](CC3CC3)C(=O)N[C@@H](Cc3ccncc3F)C(=O)N[C@@H](CCC(C)C)C(=O)N2C)c1 [compound 279, cyclo(FLac-NMeA-PyrimAla-cPrA-4Pal2F-hL-NMePhe3Me-amBCP)] (cyclo([Ala(cPr)][X13][hLeu][NMePhe(3-Me)][X1][PhLac][NMeA][Ala(pyrimidin-5-yl)]))",4.02
13,"CC(C)CC[C@@H]1NC(=O)[C@H](Cc2ccccc2F)NC(=O)[C@H](CCCF)NC(=O)[C@H](Cc2cncnc2)NC(=O)[C@H](C)N(C)C(=O)[C@H](Cc2ccccc2)OC(=O)C23CC(CNC(=O)[C@H](Cc4ccccc4)N(C)C1=O)(C2)C3 [compound 133, cyclo(FLac-NMeA-PyrimAla-NvaF-Phe2F-hL-NMeF-amBCP)] (cyclo([NMeA][Ala(pyrimidin-5-yl)][X4][Phe(2-F)][hLeu][NMeF][X1][PhLac]))",2.26
14,"CC(C)CC[C@@H]1NC(=O)[C@H](Cc2c(F)cncc2F)NC(=O)[C@H](CC2CC2)NC(=O)[C@H](Cc2cncnc2)NC(=O)[C@H](C)N(C)C(=O)[C@H](Cc2ccccc2)OC(=O)C23CC(CNC(=O)[C@H](Cc4ccccc4)N(C)C1=O)(C2)C3 [compound 292, cyclo(FLac-NMeA-PyrimAla-cPrA-4Pal26F2-hL-NMeF-amBCP)] (cyclo([Ala(cPr)][X14][hLeu][NMeF][X1][PhLac][NMeA][Ala(pyrimidin-5-yl)]))",14.5
15,"CCCC[C@@H]1NC(=O)[C@H](Cc2cccnc2)NC(=O)[C@H](C)N(C)C(=O)[C@H](Cc2ccccc2)OC(=O)C23CC(CNC(=O)[C@H](Cc4cccnc4)N(C)C(=O)[C@H](CCC(C)C)NC(=O)[C@H](Cc4ccccc4F)NC1=O)(C2)C3 [compound 124, cyclo(FLac-NMeA-3Pal-Nle-Phe2F-hL-NMe3Pal-amBCP)] (cyclo([3Pal][Nle][Phe(2-F)][hLeu][NMe3Pal][X1][PhLac][NMeA]))",4.65
16,"CCCCC[C@@H]1NC(=O)[C@H](Cc2ccc(OC)cc2)NC(=O)[C@H](CC2CCC2)NC(=O)[C@H](Cc2cccnc2)NC(=O)[C@H](CCCNC(=N)N)NC(=O)[C@H](Cc2ccccc2)OC(=O)C23CC(CNC(=O)[C@H](Cc4ccccc4)N(C)C1=O)(C2)C3 [compound 211, cyclo(FLac-R-3Pal-cBuA-TyrOMe-Ahp-NMeF-amBCP)] (cyclo([PhLac]R[3Pal][Cba]Y(Me)[Ahp(2)][NMeF][X1]))",> 50.8
17,"Cc1cccc(C[C@H]2C(=O)NCC34CC(C3)(C4)C(=O)O[C@@H](Cc3ccccc3)C(=O)N(C)[C@@H](C)C(=O)N[C@@H](Cc3cncnc3)C(=O)N[C@@H](CC3CC3)C(=O)N[C@@H](Cc3ccccc3F)C(=O)N[C@@H](CCC(C)(F)F)C(=O)N2C)c1 [compound 275, cyclo(FLac-NMeA-PyrimAla-cPrA-Phe2F-Nle3F2-NMePhe3Me-amBCP)] (cyclo([Ala(cPr)][Phe(2-F)][Nle(5,5-F2)][NMePhe(3-Me)][X1][PhLac][NMeA][Ala(pyrimidin-5-yl)]))",0.924
18,"CCCCC[C@@H]1NC(=O)[C@H](Cc2ccc(OC)cc2)NC(=O)[C@H](CC2CCC2)NC(=O)[C@H](Cc2ccc(OCCN3CCCC3)cc2)NC(=O)[C@H](CCCNC(=N)N)NC(=O)[C@H](Cc2ccccc2)NC(=O)CSC[C@@](C)(C(N)=O)NC(=O)[C@H](Cc2ccccc2)N(C)C1=O [compound 383, cyclo(F-R-TyrOEtPyr-cBuA-TyrOMe-Ahp-NMeF-aMeCl-ClAc)] ({CH2CO}-FRY(Ethyl(2-pyrrolidin-1-yl))[Cba]Y(Me)[Ahp(2)][NMeF][αMeC]-NH2; thioether N-8)",> 50.8
19,"CCCCC[C@@H]1NC(=O)[C@H](CC(=O)N2CCCC2)NC(=O)[C@H](CC2CCC2)NC(=O)[C@H](Cc2cccnc2)NC(=O)[C@H](CCCNC(=N)N)NC(=O)[C@H](Cc2ccccc2)NC(=O)CSC[C@@](C)(C(N)=O)NC(=O)[C@H](Cc2ccccc2)N(C)C1=O [compound 373, cyclo(F-R~3Pal-cBuA-PyD-Ahp-NMeF-aMeCl-ClAc)] ({CH2CO}-FR[3Pal][Cba]D(Pyrrolidide)[Ahp(2)][NMeF][αMeC]-NH2; thioether N-8)",> 50.8
20,"CC(C)CC[C@@H]1NC(=O)[C@H](Cc2ccccc2F)NC(=O)[C@H](CC2CC2)NC(=O)[C@H](Cc2cncnc2)NC(=O)[C@H](C)N(C)C(=O)[C@H](Cc2ccccc2)OC(=O)C23CC(CNC(=O)[C@H](Cc4ccccc4)N(C)C1=O)(C2)C3 [compound 260, cyclo(FLac-NMeA-PyrimAla-cPrA-Phe2F-hL-NMeF-amBCP)] (cyclo([Ala(cPr)][Phe(2-F)][hLeu][NMeF][X1][PhLac][NMeA][Ala(pyrimidin-5-yl)]))",0.167
